Results reported in patent US5709816A, “Singlet oxygen quenchers and external compositions containing the same” (Kao Corporation, priority 1899, dated 1998).

Key:
[1] = tested on: skin of hairless mice; assay: Analysis of wrinkles in hairless mice (image analysis of skin replicas); assay type: in vivo, hairless mouse (HR/ICR); details: 5 wt. % in ethanol, 80 μl; UV-B sixteen weeks; shadow area of skin replicas, 30°; control (ethanol) 6.46 ± 0.68
Protocol: (§1) To each hairless mouse (HR/ICR, 6 weeks old when the test started), a test substance (5 wt. %, in ethanol) was applied. (80 μl). Approximately 10 minutes later, UV-B was irradiated thereto using 6 bulbs of health lamps (SL20-SLE, Toshiba) so that the dose per irradiation was not greater than 1 MED. Irradiation was repeated five times per week over sixteen weeks. While the irradiation energy was measured using a UV-radiometer (UVR-305/S65D, Tokyo Optical K.K.) so that the dose per irradiation was not greater than 1 MED, energy was irradiated at an intensity of 0.28 mW/cm^2, with the total dose. 100 mJ/cm^2. As a control, a case where only ethanol was applied was similarly tested in a manner performed on the test substances.
In order to analyze the wrinkles formed in the above step (1) in detail, replicas of different skin areas (3 replicas per mouse) each having a round shape with a diameter of 1 cm were obtained using a hydrophilic exaflex, hydrophilic vinyl silicone imaging agent. Each replica was placed horizontally and lightened from an angle of 30°. The area of shadows formed by wrinkles was analyzed as the area ratio using an image analyzing apparatus.

[2] = tested on: skin of hairless mice; assay: Inhibition of wrinkle formation in hairless mice (visual wrinkle index); assay type: in vivo, hairless mouse (HR/ICR); details: 5 wt. % in ethanol, 80 μl; UV-B five times per week, sixteen weeks; scale 1 (no wrinkles) to 4; control (ethanol) 3.78 ± 0.08
Protocol: (1) Inhibition of wrinkle formation in hairless mice.
as §1
After completion of the testing, the level of wrinkle formation was visually determined using the following standards (wrinkle indices).
1: No wrinkles are formed
2: Small amounts of wrinkles are formed
3: Moderate amounts of wrinkles are formed
4: Considerable amounts of wrinkles are formed

Row | SMILES | Area ratio of image analysis [1] [%] | Wrinkle index [2]
1 | CCOC(=O)CN(Cc1ccco1)Cc1ccco1 [Compound (24), ethyl N,N-bisfurfurylglycine] | 3.27 ± 0.29 | 2.56 ± 0.08
2 | CC(=O)Oc1c(C)c(C)c2c(c1C)CCC(C)(CCCC(C)CCCC(C)CCCC(C)C)O2 (stereo not drawn) [α-Tocopheryl acetate, reference compound] | 4.67 ± 0.48 | 3.28 ± 0.23
3 | Cc1ccc(CN(Cc2ccc(C)o2)c2ccccc2)o1 [Compound (25), N,N-bis(5-methylfurfuryl)phenylamine] | 3.32 ± 0.21 | 2.35 ± 0.34
4 | Cc1ccc(N(Cc2ccc(C)o2)Cc2ccc(C)o2)cc1 [Compound (29), N,N-bis(5-methylfurfuyl)-4-methylphenylamine] | 3.64 ± 0.12 | 2.28 ± 0.06
5 | Cc1ccc(CN(Cc2ccc(C)o2)c2ccccc2C)o1 [Compound (30), N,N-bis(5-methylfurfuryl)-2-methylphenylamine] | 3.39 ± 0.47 | 2.51 ± 0.43
6 | CCCCN(Cc1ccco1)Cc1ccco1 [Compound (22), N,N-bisfurfurylbutylamine] | 3.37 ± 0.30 | 2.34 ± 0.16
7 | COc1ccc(N(Cc2ccc(C)o2)Cc2ccc(C)o2)cc1 [Compound (26), N,N-bis(5-methylfurfuryl)-p-methoxyphenylamine] | 3.69 ± 0.59 | 2.44 ± 0.33
8 | COc1cc(N(Cc2ccc(C)o2)Cc2ccc(C)o2)cc(OC)c1OC [Compound (28), N,N-bis(5-methylfurfuryl)-3,4,5-trimethoxyphenylamine] | 3.24 ± 0.33 | 2.43 ± 0.06
9 | COc1ccc(N(Cc2ccco2)Cc2ccc(C)o2)cc1 [Compound (31), N-furfuryl-N-(S-methylfurfuryl)-4-methoxyphenylamine] | 3.30 ± 0.17 | 2.49 ± 0.20
10 | CCCCC(CC)CN(Cc1ccco1)Cc1ccco1 (centres unmarked) [Compound (23), N,N-bisfurfuryl-2-ethylhexylamine] | 3.23 ± 0.18 | 2.17 ± 0.05
